The numbers were not newly measured in paper PMC10723152 (Proceedings of the National Academy of Sciences of the …, 2023), which cites them from elsewhere.

This data set has as its system cynomolgus macaques. The conditions noted are these: adult male cynomolgus macaques, 2 Gy sublethal whole-body irradiation.

On to “recombinant hGH: recombinant human Growth Hormone, biologic compared from the authors' previous work”, for which the hematopoietic recovery entry is given as “enhanced hematopoietic recovery”.
